Measurements: patent US12630530B2, “FGFR inhibitor compound and use thereof” (HENAN MEDINNO PHARMACEUTICAL TECHNOLOGY CO., LTD., priority 2020, dated 2026)

Columns and labels:
Assay type in all cases: biochemical
FGFR3 V555M = molecular target: T1, FGFR3 V555M (Homo sapiens, UniProt P22607, V555M); test: Assay I: inhibitory activity against FGFR mutants (HTRF KinEASE-TK); conditions: Table 1; ATP working concentration 20 μM, substrate TK 1 μM
T1 construct: purchased Signalchem F06-12GG
Procedure: (§1) Assay I: Determination of Inhibitory Activity Against FGFR Mutants
(§2) 1×Kinase reaction buffer was formulated with 1×volume of 5× kinase reaction buffer and 4×volume of water; 5 mM MgCl2; and 1 mM DTT.
2.3 Screening of Compounds: • 1. Diluting a compound 4-fold in a dilution plate with DMSO, with a starting compound concentration of 2 mM (4 mM for Nentedanib). • 2. Diluting the compound 40-fold into 1× kinase reaction buffer and shaking it on a shaker for 20 minutes. • 3. […] Adding 1 μl of the compound diluted in buffer to each well, sealing the plate with a sealing membrane and centrifuging the plate at 1000 g for 30 seconds and leaving it at room temperature for 10 minutes. • 6. Formulating 2.5×TK-substrate-biotin and ATP mixture with 1× enzyme reaction buffer and adding 2 μl of K-substrate-biotin/ATP mixture to the reaction plate. • 7. Sealing the plate with a sealing membrane and centrifuging the plate at 1000 g for 30 seconds and allowing it to react at room temperature for 50 minutes. • 8. Formulating 4×Sa-XL 665 (250 nM) with HTRF assay buffer. • 9. Adding 5 μl Sa-XL 665 and 5 μl TK-Antibody-Cryptate to each well, centrifuging it at 1000 g for 30 seconds, and allowing it to react for 1 hour at room temperature. • 10. Reading fluorescence signals at 615 nm (Cryptate) and 665 nm (XL665) with Biotek. 3. Data Analysis
3.1 Calculation of the ratio for each well: the ratio was calculated as 665/615 nm.
(§3) 3.3 Calculation of IC50 and plotting of inhibition curves for the compounds.
(§4) The IC50 (half inhibition concentration) of a compound was obtained using the following non-linear fitting equation, wherein data analysis was performed using Graphpad 6.0 software.
(§5) Data were exported from Envision and analyzed manually. The ratios were converted to inhibition rates and IC50 was calculated by Prism GraphPad 6.0 from the inhibition rates. IC50 was calculated again by the ratios to verify accuracy of the results.

FGFR1 V561M = molecular target: T2, FGFR1 V561M (Homo sapiens, UniProt P11362, V561M); test: as above; conditions: Table 1; ATP working concentration 5 μM, substrate TK 1 μM
T2 construct: purchased Signalchem F04-13G
T2 sequence (P11362 22-822 V561M): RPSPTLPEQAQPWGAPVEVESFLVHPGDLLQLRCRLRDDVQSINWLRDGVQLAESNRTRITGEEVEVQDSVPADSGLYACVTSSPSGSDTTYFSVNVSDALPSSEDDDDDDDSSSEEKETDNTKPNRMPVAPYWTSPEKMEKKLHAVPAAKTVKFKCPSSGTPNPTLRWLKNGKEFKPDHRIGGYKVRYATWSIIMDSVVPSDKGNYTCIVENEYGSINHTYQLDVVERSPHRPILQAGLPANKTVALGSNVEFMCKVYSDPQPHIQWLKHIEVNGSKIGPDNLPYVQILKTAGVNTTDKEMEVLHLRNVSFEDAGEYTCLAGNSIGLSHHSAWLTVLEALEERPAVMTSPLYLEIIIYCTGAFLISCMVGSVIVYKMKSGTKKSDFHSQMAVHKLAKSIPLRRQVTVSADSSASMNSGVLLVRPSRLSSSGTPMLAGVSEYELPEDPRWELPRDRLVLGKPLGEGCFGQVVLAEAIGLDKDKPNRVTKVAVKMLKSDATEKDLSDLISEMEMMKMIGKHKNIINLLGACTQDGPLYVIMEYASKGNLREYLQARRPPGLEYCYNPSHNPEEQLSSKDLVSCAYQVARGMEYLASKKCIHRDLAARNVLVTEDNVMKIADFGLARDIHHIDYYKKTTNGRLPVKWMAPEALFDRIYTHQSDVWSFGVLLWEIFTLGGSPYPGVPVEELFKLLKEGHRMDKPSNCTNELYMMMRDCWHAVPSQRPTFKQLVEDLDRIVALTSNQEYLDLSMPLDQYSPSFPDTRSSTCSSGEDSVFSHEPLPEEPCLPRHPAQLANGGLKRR
Procedure: as §1, §2
(§6) 2.3 Screening of Compounds: • 1. […] Adding 1 μl of the compound diluted in buffer to each well, sealing the plate with a sealing membrane and centrifuging the plate at 1000 g for 30 seconds and leaving it at room temperature for 10 minutes. • 6. Formulating 2.5×TK-substrate-biotin and ATP mixture with 1× enzyme reaction buffer and adding 2 μl of K-substrate-biotin/ATP mixture to the reaction plate. • 7. Sealing the plate with a sealing membrane and centrifuging the plate at 1000 g for 30 seconds and allowing it to react at room temperature for 50 minutes. • 8. […] 3. Data Analysis
as §3, §4, §5

FGFR2 V564F = molecular target: T3, FGFR2 V564F (Homo sapiens, UniProt P21802, V564F); test: as above; conditions: Table 1; ATP working concentration 10 μM, substrate TK 1 μM
T3 construct: purchased Signalchem F05-12FG
T3 sequence (P21802 22-821 V564F): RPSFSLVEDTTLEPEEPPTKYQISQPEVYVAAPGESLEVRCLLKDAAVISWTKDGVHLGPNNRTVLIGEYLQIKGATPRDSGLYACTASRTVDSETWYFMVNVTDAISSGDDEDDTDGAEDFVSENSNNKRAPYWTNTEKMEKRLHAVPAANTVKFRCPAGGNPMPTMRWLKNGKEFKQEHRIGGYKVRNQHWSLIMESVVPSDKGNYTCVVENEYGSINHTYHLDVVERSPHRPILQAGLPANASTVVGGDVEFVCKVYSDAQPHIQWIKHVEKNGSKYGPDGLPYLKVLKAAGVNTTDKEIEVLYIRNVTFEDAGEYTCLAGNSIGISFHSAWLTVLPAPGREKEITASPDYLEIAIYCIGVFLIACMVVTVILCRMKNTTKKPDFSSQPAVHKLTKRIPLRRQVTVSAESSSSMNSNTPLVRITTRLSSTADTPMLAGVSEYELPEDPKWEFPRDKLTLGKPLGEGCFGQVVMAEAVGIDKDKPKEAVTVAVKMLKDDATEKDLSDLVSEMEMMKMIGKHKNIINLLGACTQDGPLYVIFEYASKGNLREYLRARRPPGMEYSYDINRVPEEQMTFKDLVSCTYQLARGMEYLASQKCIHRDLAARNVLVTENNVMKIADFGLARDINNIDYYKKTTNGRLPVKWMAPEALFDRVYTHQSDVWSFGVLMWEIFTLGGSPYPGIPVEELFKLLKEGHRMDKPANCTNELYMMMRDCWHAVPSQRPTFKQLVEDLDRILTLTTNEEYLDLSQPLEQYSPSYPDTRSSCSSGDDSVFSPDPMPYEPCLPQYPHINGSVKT
Procedure: as §1, §2, §6, §3, §4, §5

FGFR3 K650E = FGFR3 K650E (Homo sapiens, UniProt P22607, K650E); test: as above; conditions: Table 1; ATP working concentration 50 μM, substrate TK 1 μM
FGFR3 K650E, sequence (P22607 23-806 K650E): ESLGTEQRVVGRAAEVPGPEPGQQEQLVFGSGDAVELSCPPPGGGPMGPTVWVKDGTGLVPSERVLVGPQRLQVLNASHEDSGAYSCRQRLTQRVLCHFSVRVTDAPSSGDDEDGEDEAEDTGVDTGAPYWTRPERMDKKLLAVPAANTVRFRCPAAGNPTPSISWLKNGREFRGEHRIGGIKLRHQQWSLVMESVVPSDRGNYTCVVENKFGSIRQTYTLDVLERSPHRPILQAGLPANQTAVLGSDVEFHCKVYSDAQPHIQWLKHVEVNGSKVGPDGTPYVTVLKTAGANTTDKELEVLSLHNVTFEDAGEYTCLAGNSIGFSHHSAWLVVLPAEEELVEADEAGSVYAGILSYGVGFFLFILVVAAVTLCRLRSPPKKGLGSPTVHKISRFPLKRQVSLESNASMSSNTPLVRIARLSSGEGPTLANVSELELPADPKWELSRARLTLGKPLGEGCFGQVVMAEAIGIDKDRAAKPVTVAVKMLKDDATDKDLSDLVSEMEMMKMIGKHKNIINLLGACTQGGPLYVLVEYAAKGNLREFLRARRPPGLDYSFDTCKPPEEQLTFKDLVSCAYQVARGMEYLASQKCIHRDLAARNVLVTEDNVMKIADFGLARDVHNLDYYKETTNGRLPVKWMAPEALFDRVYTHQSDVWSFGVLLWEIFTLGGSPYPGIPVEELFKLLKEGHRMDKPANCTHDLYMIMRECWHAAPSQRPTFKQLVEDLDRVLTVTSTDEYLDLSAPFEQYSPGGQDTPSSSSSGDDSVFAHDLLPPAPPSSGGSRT
Procedure: as §1, §2, §6, §3, §4, §5

VEGFR2 = molecular target: T4, VEGFR2 (Homo sapiens, UniProt P35968); test: Assay I: kinase inhibition (HTRF KinEASE-TK), VEGFR2; conditions: Table 1; ATP working concentration 5 μM, substrate TK 1 μM
T4 construct: purchased Carna 08-191
T4 sequence (P35968 20-1356): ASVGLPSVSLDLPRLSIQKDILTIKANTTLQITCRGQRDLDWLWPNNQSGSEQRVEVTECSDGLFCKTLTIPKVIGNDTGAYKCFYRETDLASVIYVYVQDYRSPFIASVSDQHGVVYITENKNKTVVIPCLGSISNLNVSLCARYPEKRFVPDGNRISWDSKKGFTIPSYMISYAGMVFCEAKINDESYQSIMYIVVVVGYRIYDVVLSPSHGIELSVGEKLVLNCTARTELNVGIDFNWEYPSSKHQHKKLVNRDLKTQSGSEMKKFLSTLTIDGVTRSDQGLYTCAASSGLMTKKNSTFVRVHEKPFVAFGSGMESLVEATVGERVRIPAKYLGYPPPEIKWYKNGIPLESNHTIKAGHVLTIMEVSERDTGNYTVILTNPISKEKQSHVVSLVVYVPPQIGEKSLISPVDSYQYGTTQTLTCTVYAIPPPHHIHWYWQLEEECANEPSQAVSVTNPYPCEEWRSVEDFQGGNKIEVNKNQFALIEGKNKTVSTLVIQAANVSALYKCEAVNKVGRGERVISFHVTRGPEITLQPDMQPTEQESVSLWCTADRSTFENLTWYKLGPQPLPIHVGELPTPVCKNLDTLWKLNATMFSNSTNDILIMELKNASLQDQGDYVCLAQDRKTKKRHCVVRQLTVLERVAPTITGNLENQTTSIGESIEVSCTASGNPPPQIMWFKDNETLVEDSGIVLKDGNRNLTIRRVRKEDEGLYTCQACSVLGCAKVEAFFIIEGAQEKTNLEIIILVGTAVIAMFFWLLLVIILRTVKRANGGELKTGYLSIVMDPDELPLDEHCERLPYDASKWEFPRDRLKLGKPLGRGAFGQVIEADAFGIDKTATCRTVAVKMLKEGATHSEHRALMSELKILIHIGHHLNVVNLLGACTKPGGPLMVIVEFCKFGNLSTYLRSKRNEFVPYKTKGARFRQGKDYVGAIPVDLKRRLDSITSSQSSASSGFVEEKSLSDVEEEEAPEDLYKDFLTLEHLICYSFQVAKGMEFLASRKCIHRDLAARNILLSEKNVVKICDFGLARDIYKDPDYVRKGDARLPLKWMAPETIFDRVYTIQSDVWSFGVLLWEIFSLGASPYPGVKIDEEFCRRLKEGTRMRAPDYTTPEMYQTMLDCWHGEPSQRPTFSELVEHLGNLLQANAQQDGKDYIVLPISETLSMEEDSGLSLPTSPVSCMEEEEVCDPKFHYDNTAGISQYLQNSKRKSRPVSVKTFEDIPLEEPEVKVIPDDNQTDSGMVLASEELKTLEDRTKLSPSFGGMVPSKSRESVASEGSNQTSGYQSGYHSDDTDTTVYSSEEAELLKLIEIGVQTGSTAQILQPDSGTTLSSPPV

FGFR3 = molecular target: T5, FGFR3 (Homo sapiens, UniProt P22607); test: Assay II: inhibitory activity against wild-type FGFR (HTRF KinEASE-TK); conditions: Table 2, ATP working concentration 50 μM, substrate TK 1 μM
T5 construct: purchased Carna 08-135
T5 sequence (P22607 23-806): as the sequence (P22607 23-806 K650E) above, with E628K counted along it
Procedure: (§7) Assay II: Determination of inhibitory activity against wild-type FGFR
as §2
(§8) 3. Formulating 2×FGFR1/FGFR2/FGFR3 with 1× of enzyme reaction buffer.
(§9) 4. Adding 2 μl FGFR1/FGFR2/FGFR3 kinase (formulated in step 3) to each well of the reaction plate.
(§10) 5. Adding 1 μl of the compound diluted in buffer to each well, sealing the plate with a sealing membrane and centrifuging the plate at 1000 g for 30 seconds and leaving it at room temperature for 10 minutes.
(§11) 6. Formulating 2.5×TK-substrate-biotin and ATP mixture with 1× enzyme reaction buffer and adding 2 μl of K-substrate-biotin/ATP mixture to the reaction plate.
(§12) 7. Sealing the plate with a sealing membrane and centrifuging the plate at 1000 g for 30 seconds and allowing it to react at room temperature for 50 minutes.
as §3, §4, §5

FGFR2 = molecular target: T6, FGFR2 (Homo sapiens, UniProt P21802); test: as above; conditions: Table 2, ATP working concentration 50 μM, substrate TK 1 μM
T6 construct: purchased Carna 08-134
T6 sequence (P21802 22-821): as the sequence (P21802 22-821 V564F) above, with F543V counted along it
Procedure: as §7, §2, §8, §9, §10, §11, §12, §3, §4, §5

FGFR1 = molecular target: T7, FGFR1 (Homo sapiens, UniProt P11362); test: as above; conditions: Table 2, ATP working concentration 50 μM, substrate TK 1 μM
T7 construct: purchased Carna 08-133
T7 sequence (P11362 22-822): as the sequence (P11362 22-822 V561M) above, with M540V counted along it
Procedure: as §7, §2, §8, §9, §10, §11, §12, §3, §4, §5

T1 sequence (P22607 23-806 V555M): as the sequence (P22607 23-806 K650E) above, with V533M, E628K counted along it

IC50 (FGFR3 V555M) | IC50 (FGFR1 V561M) | IC50 (FGFR2 V564F) | IC50 (FGFR3 K650E) | IC50 (VEGFR2) | IC50 (FGFR3) | IC50 (FGFR2) | IC50 (FGFR1) | Structure (SMILES)
8.6 nM | 6.3 nM | 2.3 nM | 26.8 nM | – | – | – | – | CC(Oc1ccc2[nH]nc(C(=O)Nc3ccc(N4C[C@@H](C)N[C@@H](C)C4)cc3)c2c1)c1c(Cl)cncc1Cl (stereo partly drawn) [Compound 1, 5-(1-(3,5-dichloropyridin-4-yl)ethoxy)-N-(4-((3S,5R)-3,5-dimethylpiperazin-1-yl)phenyl)-1H-indazole-3-carboxamide]
2.2 nM | 7 nM | 2 nM | 30 nM | 176 nM | – | – | – | CC(Oc1ccc2[nH]nc(C(=O)Nc3cnn(CCO)c3)c2c1)c1c(Cl)cncc1Cl (centres unmarked) [Compound 2, 5-(1-(3,5-dichloropyridin-4-yl)ethoxy)-N-(1-(2-hydroxyethyl)-1H-pyrazol-4-yl)-1H-indazole-3-carboxamide]
4.6 nM | 7.2 nM | 2.4 nM | 33.4 nM | – | – | – | – | CC(Oc1ccc2[nH]nc(C(=O)Nc3cnn(C(C)CC#N)c3)c2c1)c1c(Cl)cncc1Cl (centres unmarked) [Compound 5, N-(1-(1-cyanopropan-2-yl)-1H-pyrazol-4-yl)-5-(1-(3,5-dichloropyridin-4-yl)ethoxy)-1H-indazole-3-carboxamide]
0.94 nM | 2.3 nM | 0.66 nM | – | 84.1 nM | 52.2 nM | 21.3 nM | 27.7 nM | C[C@@H]1CN(c2ccc(NC(=O)c3n[nH]c4ccc(O[C@H](C)c5c(Cl)cncc5Cl)cc34)cc2)C[C@H](C)N1 [Compound 6, 5-((R)-1-(3,5-dichloropyridin-4-yl)ethoxy)-N-(4-((3S,5R)-3,5-dimethylpiperazin-1-yl)phenyl)-1H-indazole-3-carboxamide]
